Test results from patent US12097179B2, “Carbazole derivatives for the treatment of fibrotic diseases and related symptoms, and conditions thereof” (Raziel Therapeutics Ltd., priority 2015, dated 2024).

Legend:
kidney fibrosis = experiment: Unilateral ureteral ligation (UUO) kidney fibrosis model; format: in vivo, rat; details: male SD rats, RZL-012 15 mg s.c. into fat at Day 14 and Day 42, sacrifice 8 weeks after UUO, vs Vehicle
Experimental: • Animals: Male SD Rats, 250 g. • Induction of kidney fibrosis: Overnight fasted rats were anesthetized (a mixture of Ketamine 20 mg/kg and Xylazin 2 mg/kg IP). The abdominal cavity was exposed via a midline incision up to 0.5-1 cm before penis about 3 cm along. Then the bladder was lifted out and epididymal fat was remoted. The left ureter was ligated at two points with 4-0 sutures. The wound was closed in layers with the same sutures. Then animals were returned to the cages. […] The tissue sections were stained with Masson-Trichrome which enable a distinction between fibrotic tissue (staining collagen fiber in Blue) and normal viable tissue (Purple-Red) (see FIG. 6C). • Quantification of kidney fibrosis: In order to quantify, in an unbiased way, the fibrotic response in RZL-treated vs. non-treated rats, the dimensions of the fibrotic layer surrounding aortic blood vessel, were measured. All aortic vessels in each affected kidney were analyzed in the following way: The vessel wall consists of two components, the usual Muscular layer and an outer layer, excessively rich in collagen, in these kidneys, hereby defined as “Adventitia” (FIG. 6C). The net width of the adventitia and that of the Muscular layer were calculated as follows: […]

scar formation in pigs = experiment: Remote effect of local s.c. fat injection on scar formation in pigs (RZL-012 vs Kythera/Kybella); format: in vivo; details: pig; for Collagen fibers in scar-tissue (H & E histology): compared with Kythera scar tissue
Description: The objective of this study is to evaluate the remote effect on local injection of RZL-012 of the invention (5-(3,6-dibromo-9H-carbazol-9-yl)-N,N,N-trimethylpentan-1-aminium) into the s.c. fat, on scar formation in pigs, compared with Kybella (an injectable formulation of Deoxycholate developed by Kythera) an agent that bluntly destroys s.c. fat.
• 1. Kythera preparation (according to published formulation): an aqueous solution of 5% Phosphatidylcholine, 4.75% Sodium deoxycholate and 0.9% Benzyl Alcohol. • 2. RZL-012 of the invention (5-(3,6-dibromo-9H-carbazol-9-yl)-N,N,N-trimethylpentan-1-aminium) of the invention preparation: 5.0% (w/v) RZL-012 in the below indicated formulation: […]
Eighty kilogram pigs were injected with either Kythera or RZL-012 of the invention preparation, into the s.c. fat (1 cm depth, 27 G needle), at 10 sites, divided into two clusters, on the right flank only. The injection at each site was of a volume of 0.5 ml. In addition, a cut through the s.c. fat was made at the midline of each pig at the right and at the left flank.
Animals were housed in the animal unit of Biotechfarm, Israel and fed on a diet weighing 2% of body weight (B.W.) per day divided to two meals, based on the last effective weekly body weighing.
After 2 months from the day of treatment, the animals were sacrificed; the scars on both sides were photographed before and after making a cross section in the middle of each scar. Thereafter, tissue samples of all cross-sections were formalin-fixed and processed for H & E histology staining.

For C[N+](C)(C)CCCCCn1c2ccc(Br)cc2c2cc(Br)ccc21 [RZL-012, 5-(3,6-dibromo-9H-carbazol-9-yl)-N,N,N-trimethylpentan-1-aminium], the “Kidney fibrosis (Adventitia/Muscular layers ratio, Masson-Trichrome)” value (kidney fibrosis) was “significant inhibition of kidney fibrosis”, the “Macroscopic view of the scar at the left, non-treated side” value (scar formation in pigs; 2 months after s.c. fat injection on right flank only, external view, compared with Kythera treated pig) was “much finer” and the “Scar tissue seen after a cross section through the scar (macroscopic)” value (scar formation in pigs; 2 months sacrifice, cross-section through the middle of the scar, non-treated side (L)) was “no apparent scare tissue was observed”. For the same compound, the “Difference in the scar tissue width” value (scar formation in pigs; 2 months, H & E histology, careful measurement, RZL-012 vs Kythera treated pig) was 4-5 times, the “Collagen fibers in scar-tissue (H & E histology)” value (scar formation in pigs; 2 months, X20 objective magnification) was “less collagen fibers” and the “Collagen fibers in scar-tissue (H & E histology)” value (scar formation in pigs; 2 months, X40 objective magnification) was “less collagen fibers”. For the same compound, the “Width of fibrotic tissue (scar histology, H & E)” value (scar formation in pigs; 2 months, both sides, X10 objective magnification, RZL-012 vs Kythera treated pig) was “much thinner”.
